In ChEMBL document CHEMBL5036317, “Identification of Unique Quinazolone Thiazoles as Novel Structural Scaffolds for Potential Gram-Negative Bacterial Conquerors” (J Med Chem, 2021):
Values after ≈ are worked out from the molar mass of the structure shown. Active and inactive are the calls of the source. No cut-off for these calls is given here.

Tests used:
Pseudomonas aeruginosa [1] = test: Induction of ROS generation in Pseudomonas aeruginosa measured after 6 hrs by DCFH-DA staining based assay; assay type: functional, organism-based
Cell membrane [2] = test: Induction of inner membrane permeabilization in Escherichia coli assessed as increase in PI uptake by measuring increase in fluorescence intensity incubated for 30 mins by propidium iodide staining based fluorescence analysis
Cell membrane [3] = test: Induction of cytoplasmic membrane depolarization in Escherichia coli assessed as increase in fluorescence intensity at 0 to 6 times MIC by DiSC3-5 dye based fluorescence assay; assay type: subcellular
Pseudomonas aeruginosa [4] = test: Antibacterial activity against Pseudomonas aeruginosa assessed as inhibition of bacterial growth measured after 24 hrs by two-fold serial dilution method; assay type: functional
Cell membrane [5] = test: Induction of cell membrane disruption in Escherichia coli assessed as reduction in LDH activity at 1 to 4 times MIC measured after 6 hrs; assay type: subcellular
Cell membrane [6] = test: Induction of outer membrane permeabilization in Pseudomonas aeruginosa assessed as increase in NPN uptake by measuring increase in fluorescence intensity incubated for 5 mins by NPN-dye based fluorescence analysis
Staphylococcus aureus [7] = test: Antibacterial activity against methicillin-resistant Staphylococcus aureus assessed as inhibition of bacterial growth measured after 24 hrs by two-fold serial dilution method; assay type: functional
Escherichia coli [8] = test: Induction of ROS generation in Escherichia coli measured after 6 hrs by DCFH-DA staining based assay; assay type: functional, organism-based
Pseudomonas aeruginosa [9] = test: Antibacterial activity against Pseudomonas aeruginosa ATCC 27853 assessed as inhibition of bacterial growth measured after 24 hrs by two-fold serial dilution method; assay type: functional
Pseudomonas aeruginosa [10] = test: Antibiofilm activity against Pseudomonas aeruginosa assessed as reduction in biofilm biomass at 0 to 6 times MIC measured after 24 hrs by crystal violet staining based assay; assay type: functional, organism-based
Enterococcus faecalis = test: Antibacterial activity against Enterococcus faecalis assessed as inhibition of bacterial growth measured after 24 hrs by two-fold serial dilution method; assay type: functional
Cell membrane [11] = test: Induction of outer membrane permeabilization in Escherichia coli assessed as increase in NPN uptake by measuring increase in fluorescence intensity incubated for 5 mins by NPN-dye based fluorescence analysis
Cell membrane [12] = test: Induction of cell membrane disruption in Escherichia coli assessed as increase in protein leakage at 1 to 6 times MIC measured after 6 hrs by Bradford assay
Cell membrane [13] = test: Induction of cell membrane disruption in Pseudomonas aeruginosa assessed as increase in protein leakage at 1 to 6 times MIC measured after 6 hrs by Bradford assay
Escherichia coli [14] = test: Antibacterial activity against Escherichia coli assessed as drug resistance treated for 16 serial passages and measured every 24 hrs; assay type: functional, organism-based
Staphylococcus aureus [15] = test: Antibacterial activity against Staphylococcus aureus assessed as inhibition of bacterial growth measured after 24 hrs by two-fold serial dilution method; assay type: functional
Acinetobacter baumannii = test: Antibacterial activity against Acinetobacter baumanii assessed as inhibition of bacterial growth measured after 24 hrs by two-fold serial dilution method; assay type: functional
Cell membrane [16] = test: Induction of cell membrane disruption in Pseudomonas aeruginosa assessed as reduction in LDH activity at 1 to 4 times MIC measured after 6 hrs; assay type: subcellular
Cell membrane [17] = test: Induction of cytoplasmic membrane depolarization in Pseudomonas aeruginosa assessed as increase in fluorescence intensity at 0 to 6 times MIC by DiSC3-5 dye based fluorescence assay; assay type: subcellular
Escherichia coli [18] = test: Antibacterial activity against Escherichia coli assessed as inhibition of bacterial growth measured after 24 hrs by two-fold serial dilution method; assay type: functional
Klebsiella pneumoniae = test: Antibacterial activity against Klebsiella pneumoniae assessed as inhibition of bacterial growth measured after 24 hrs by two-fold serial dilution method; assay type: functional
Escherichia coli [19] = test: Antibacterial activity against Escherichia coli ATCC 25922 assessed as inhibition of bacterial growth measured after 24 hrs by two-fold serial dilution method; assay type: functional
Staphylococcus aureus [20] = test: Antibacterial activity against Staphylococcus aureus ATCC 29213 assessed as inhibition of bacterial growth measured after 24 hrs by two-fold serial dilution method; assay type: functional
Staphylococcus aureus [21] = test: Antibacterial activity against Staphylococcus aureus ATCC 25923 assessed as inhibition of bacterial growth measured after 24 hrs by two-fold serial dilution method; assay type: functional
Escherichia coli [22] = test: Antibiofilm activity against Escherichia coli assessed as reduction in biofilm biomass at 0 to 6 times MIC measured after 24 hrs by crystal violet staining based assay; assay type: functional, organism-based
[23] = Haemolytic activity in human erythrocytes incubated for 2 hrs; assay type: ADME, cell-based, Erythrocyte
Pseudomonas aeruginosa [24] = test: Antibacterial activity against Pseudomonas aeruginosa assessed as reduction in metabolic activity at 1 to 6 times MIC measured after 6 hrs by alamar blue assay; assay type: functional, organism-based
Pseudomonas aeruginosa [25] = test: Antibacterial activity against Pseudomonas aeruginosa assessed as drug resistance treated for 16 serial passages and measured every 24 hrs; assay type: functional, organism-based
Calf thymus DNA [26] = test: Binding affinity to calf thymus DNA assessed as assessed as compound-DNA complex formation by measuring hypochromic shift by UV-visible absorption spectrophotometric method; assay type: tissue-based; details: Bos taurus
Cell membrane [27] = test: Induction of inner membrane permeabilization in Pseudomonas aeruginosa assessed as increase in PI uptake by measuring increase in fluorescence intensity incubated for 30 mins by propidium iodide staining based fluorescence analysis
Calf thymus DNA [28] = test: Binding affinity to calf thymus DNA assessed as reduction in acridine orange-DNA complex formation by competitive binding assay; details: Bos taurus
Escherichia coli [29] = test: Antibacterial activity against Escherichia coli assessed as reduction in metabolic activity at 1 to 6 times MIC measured after 6 hrs by alamar blue assay; assay type: functional, organism-based
Escherichia coli [30] = test: Antibacterial activity against Escherichia coli assessed as drug resistance by measuring fold change in MIC treated for 16 serial passages and measured every 24 hrs; assay type: functional
Pseudomonas aeruginosa [31] = test: Antibacterial activity against Pseudomonas aeruginosa assessed as drug resistance by measuring fold change in MIC treated for 16 serial passages and measured every 24 hrs; assay type: functional

SMILES | MIC (Pseudomonas aeruginosa [4]) [µg/mL] | MIC (Staphylococcus aureus [7]) [µg/mL] | MIC (Pseudomonas aeruginosa [9]) [µg/mL] | MIC (Enterococcus faecalis) [µg/mL] | MIC (Staphylococcus aureus [15]) [µg/mL] | MIC (Acinetobacter baumannii) [µg/mL] | MIC (Escherichia coli [18]) [µg/mL] | MIC (Klebsiella pneumoniae) [µg/mL] | MIC (Escherichia coli [19]) [µg/mL] | MIC (Staphylococcus aureus [20]) [µg/mL] | MIC (Staphylococcus aureus [21]) [µg/mL] | HC50 at 2 h [23] [µg/mL] | further results
O=C(/C(=C/c1ccc(C(F)(F)F)cc1)n1cnc2cc(Cl)ccc2c1=O)c1nccs1 | 1 (≈ 2.17 µM) | 4 (≈ 8.66 µM) | 1 (≈ 2.17 µM) | 2 (≈ 4.33 µM) | 32 (≈ 69.3 µM) | 8 (≈ 17.3 µM) | 1 (≈ 2.17 µM) | 1 (≈ 2.17 µM) | 2 (≈ 4.33 µM) | 1 (≈ 2.17 µM) | 2 (≈ 4.33 µM) | > 250 | Activity (Pseudomonas aeruginosa [1]): Dose-Dependent Effect; Activity (Cell membrane [2]): Dose-Dependent Effect; Activity (Cell membrane [3]): Active; Activity (Cell membrane [5]): Active; Activity (Cell membrane [6]): Dose-Dependent Effect; Activity (Escherichia coli [8]): Dose-Dependent Effect; Activity (Pseudomonas aeruginosa [10]): Active; Activity (Cell membrane [11]): Dose-Dependent Effect; Activity (Cell membrane [12]): Active; Activity (Cell membrane [13]): Active; Activity (Escherichia coli [14]): inactive; Activity (Cell membrane [16]): Active; Activity (Cell membrane [17]): Active; Activity (Escherichia coli [22]): Active; Activity (Pseudomonas aeruginosa [24]): Active; Activity (Pseudomonas aeruginosa [25]): inactive; Activity (Calf thymus DNA [26]): Active; Activity (Cell membrane [27]): Dose-Dependent Effect; Activity (Calf thymus DNA [28]): Active; Activity (Escherichia coli [29]): Active
O=C(/C(=C/c1csc2ccccc12)n1cnc2cc(Cl)ccc2c1=O)c1nccs1 | 32 (≈ 71.1 µM) | 512 (≈ 1140 µM) | 16 (≈ 35.6 µM) | 512 (≈ 1140 µM) | 512 (≈ 1140 µM) | 32 (≈ 71.1 µM) | 16 (≈ 35.6 µM) | 128 (≈ 284 µM) | 16 (≈ 35.6 µM) | 16 (≈ 35.6 µM) | 256 (≈ 569 µM) | > 250 | –
COc1ccc(/C=C(/C(=O)c2nccs2)n2cnc3cc(Cl)ccc3c2=O)cc1 | 32 (≈ 75.5 µM) | 8 (≈ 18.9 µM) | 32 (≈ 75.5 µM) | 32 (≈ 75.5 µM) | 64 (≈ 151 µM) | 512 (≈ 1210 µM) | 32 (≈ 75.5 µM) | 512 (≈ 1210 µM) | 32 (≈ 75.5 µM) | 4 (≈ 9.44 µM) | 4 (≈ 9.44 µM) | 245 | –
O=C(/C(=C/c1ccc(F)cc1)n1cnc2cc(Cl)ccc2c1=O)c1nccs1 | 2 (≈ 4.86 µM) | 4 (≈ 9.71 µM) | 2 (≈ 4.86 µM) | 4 (≈ 9.71 µM) | 8 (≈ 19.4 µM) | 256 (≈ 622 µM) | 16 (≈ 38.8 µM) | 512 (≈ 1240 µM) | 4 (≈ 9.71 µM) | 2 (≈ 4.86 µM) | 4 (≈ 9.71 µM) | > 250 | –
O=C(/C(=C/c1ncc[nH]1)n1cnc2cc(Cl)ccc2c1=O)c1nccs1 | 16 (≈ 41.7 µM) | 512 (≈ 1330 µM) | 16 (≈ 41.7 µM) | 512 (≈ 1330 µM) | 512 (≈ 1330 µM) | 512 (≈ 1330 µM) | 256 (≈ 667 µM) | 64 (≈ 167 µM) | 64 (≈ 167 µM) | 512 (≈ 1330 µM) | 512 (≈ 1330 µM) | > 250 | –
CN(C)/C=C(/C(=O)c1nccs1)n1cnc2cc(Cl)ccc2c1=O | 16 (≈ 44.3 µM) | 512 (≈ 1420 µM) | 16 (≈ 44.3 µM) | 128 (≈ 355 µM) | 512 (≈ 1420 µM) | 128 (≈ 355 µM) | 512 (≈ 1420 µM) | 128 (≈ 355 µM) | 16 (≈ 44.3 µM) | 512 (≈ 1420 µM) | 256 (≈ 709 µM) | 204 | –
O=C(/C(=C/c1nccs1)n1cnc2cc(Cl)ccc2c1=O)c1nccs1 | 16 (≈ 39.9 µM) | 4 (≈ 9.98 µM) | 4 (≈ 9.98 µM) | 1 (≈ 2.49 µM) | 2 (≈ 4.99 µM) | 16 (≈ 39.9 µM) | 16 (≈ 39.9 µM) | 4 (≈ 9.98 µM) | 4 (≈ 9.98 µM) | 2 (≈ 4.99 µM) | 2 (≈ 4.99 µM) | 115 | –
CCn1cc(C(=O)O)c(=O)c2cc(F)c(N3CCNCC3)cc21 [NORFLOXACIN] | 4 (≈ 12.5 µM) | 8 (≈ 25.1 µM) | 0.5 (≈ 1.57 µM) | 4 (≈ 12.5 µM) | 4 (≈ 12.5 µM) | 2 (≈ 6.26 µM) | 4 (≈ 12.5 µM) | 2 (≈ 6.26 µM) | 2 (≈ 6.26 µM) | 1 (≈ 3.13 µM) | 2 (≈ 6.26 µM) | – | fold change (FC) (Escherichia coli [30]): 32; fold change (FC) (Pseudomonas aeruginosa [31]): 32
Cc1ccc(/C=C(/C(=O)c2nccs2)n2cnc3cc(Cl)ccc3c2=O)c(C)c1 | 64 (≈ 152 µM) | 512 (≈ 1210 µM) | 64 (≈ 152 µM) | 512 (≈ 1210 µM) | 512 (≈ 1210 µM) | 128 (≈ 303 µM) | 512 (≈ 1210 µM) | 512 (≈ 1210 µM) | 64 (≈ 152 µM) | 4 (≈ 9.48 µM) | 512 (≈ 1210 µM) | 203 | –
O=C(/C(=C/c1c[nH]c2ccccc12)n1cnc2cc(Cl)ccc2c1=O)c1nccs1 | 256 (≈ 591 µM) | 256 (≈ 591 µM) | 64 (≈ 148 µM) | 256 (≈ 591 µM) | 64 (≈ 148 µM) | 256 (≈ 591 µM) | 64 (≈ 148 µM) | 128 (≈ 296 µM) | 64 (≈ 148 µM) | 64 (≈ 148 µM) | 64 (≈ 148 µM) | > 250 | –
